{
  "source": "patent US7927632B2",
  "about": "“Compositions for sterilizing spores of spore-forming microorganisms comprising the extracts of torilidis fructus” (CJ Cheiljedang Corporation, priority 2005, dated 2011)",
  "data": [
    {"test_system": "spores of Bacillus subtilis", "test": "Sterilization effect on Bacillus subtilis spores by total viable cell count", "settings": "direct mechanism (surfactant ingredients) or indirect mechanism (germination inducers), ingredients acting jointly within the extract", "procedure": "Bacillus subtilis spores were selected for use in an antimicrobial test against a spore-forming microorganism.\nVegetative cells of Bacillus subtilis ATCC 6633 were sub-cultured, streaked onto tryptic soy agar (TSA) plates, and incubated at 30° C. for 48 hrs. The plates were then stored at a low temperature of 5° C. and used as a seed culture. After the seed culture was identified to have no morphological abnormality by microscopic observation, it was spread onto a nutrient agar plate containing magnesium sulfate (NAMS), and incubated at 30° C. for 48 hrs. After 10^10-10^12 spores had emerged, the plate was washed with physiological saline, and the spores were scratched with a platinum loop and transferred into a sterile tube. The spores were then centrifuged at 4° C. at 12,000 rpm for 2 min, and this centrifugation was carried out once more. After being microscopically observed to ensure the state of the spores, the pellet was subjected to on-off ultrasonication for 5 min to destroy only the vegetative cells, and was then centrifuged again. Spore formation was further confirmed by a Dorner method, and the spores were stored at −20° C. until use for an antimicrobial test.\nThe antimicrobial plant materials were extracted with 75% ethanol, concentrated in a vacuum, and freeze-dried to provide aqueous or powdered antimicrobial materials. […] An antimicrobial test against spores of Bacillus subtilis, the representative spore-forming microorganism, was performed by optical density analysis at 600 nm and by counting of the total number of viable cells grown on a nutrient agar plate.\nOptical density analysis is a method of indirectly analyzing the degree of growth of vegetative cells and spores by measuring OD values at 600 nm for vegetative cells and spores cultured in tryptic soy broth (TSB) at 37° C. for 18 hrs. The plant materials were primarily screened for candidates considered effective in sterilization by optical density analysis. Then, the candidates were further assessed for their antimicrobial effects by viable cell count. In detail, a spore suspension was mixed with physiological saline and a natural antimicrobial material (1% final concentration). The mixture was agitated at 30° C. for 3 hrs, and was then centrifuged at 12,000 rpm. After the supernatant, considered to contain the added antimicrobial material, was discarded, the pellet remaining in an Ependorf tube was covered with distilled water and centrifuged again to eliminate residual antimicrobial material. This washing step was repeated three times to obtain only spores treated with a natural antimicrobial material. This was done to evaluate the sterilization effects of the natural antimicrobial materials on pure spore samples.", "values": [
      {"compound": "C[C@H](N)C(=O)O", "note": "[alanine]", "sterilization effect attributed to ingredients of the extract": "about 10^2"},
      {"compound": "OC[C@@H](O)[C@@H](O)[C@H](O)[C@H](O)CO", "note": "[mannitol]", "sterilization effect attributed to ingredients of the extract": "about 10^2"},
      {"compound": "CC(=O)OC/C=C(\\C)CCC=C(C)C", "note": "[geranyl acetate]", "sterilization effect attributed to ingredients of the extract": "about 10^1"},
      {"compound": "CC(=O)OC1CC2CCC1(C)C2(C)C", "note": "(centres unmarked) [bornyl acetate]", "sterilization effect attributed to ingredients of the extract": "about 10^1"},
      {"compound": "OC[C@@H](O)[C@H](O)[C@@H](O)CO", "note": "[xylitol]", "sterilization effect attributed to ingredients of the extract": "about 10^2"}
    ]}
  ]
}
